Data as given in US7799809B2, “Carboxamide compounds and their use as calpain inhibitors” (Abbott GmbH & Co. KG, priority 2006, dated 2010).

What was measured:
Format in all cases: biochemical
cathepsin B = biological target: T1, cathepsin B (Homo sapiens, UniProt P07858); assay: Cathepsin B enzyme inhibition in vitro (kinetic fluorescence assay); settings: cathepsin B isolated from human liver vs calpain I
T1 construct: cathepsin B—isolated from human liver (Calbiochem #219362); purchased Calbiochem 219362; host or cells: human liver (tissue-derived)
Description: (§1) The following solutions and buffers were employed: • HBS (for 40 ml): 800 μl M HEPES; 2.16 ml 100 mM KCl; 4.8 ml 1M NaCl; 3.59 ml 5% glucose; 60 μl μM MgSO4; 400 μl 100 mM Na pyruvate, 28.19 ml water; pH 7.2-7.5. • lysis buffer (for 20 ml): 400 μl M Tris pH 8.2; 2.74 ml 1M NaCl; 520 μl 0.5M EDTA; 2 ml 10% triton X-100; 0.8 ml (=1:25) CompletePlus (1 tablet/2 ml H2O); 200 μl 100 mM Pefabloc; 13.34 ml water, pH 8.2. • TBST (10×) (for 1 l): 100 mM Tris (12.1 g); 1.5M NaCl (87 g); 1% Tween 20 (10 g), adjusted to pH 8. I Enzyme Inhibition In Vitro: • Testing for blockade of the corresponding enzymic activities was carried out by means of kinetic fluorescence assays (excitation 390 nm, emission 460 nm). • Apparent Ki values were calculated from the experimentally determined IC50 values by the Cheng-Prussoff relation assuming a reversible competitive enzyme inhibition. The Km values of the substrates used under the assay conditions indicated above were: 90 μM (Z-Phe-Arg-AMC, cathepsin B), 10 μM (Z-Gly-Pro-Arg-AMC, cathepsin K), 2 μM (Z-Phe-Arg-AMC, cathepsin L), and 30 μM (Z-Val-Val-Arg-AMC, cathepsin S). • The indicated Ki values are averages of the inhibition constants calculated on the basis of 2 to 4 independent dose-effect plots.
(§2) The following assays were used: • 1. Calpain I: • 20 nM calpain-I—isolated from human erythrocytes (Calbiochem #208713), 100 μM Suc-Leu-Tyr-AMC (Bachem #1-1355) as substrate in buffer with 62 mM imidazole, 0.3 mM CaCl2, 0.10% CHAPS, 0.05% BSA, 1 mM DTT at pH 7.3 and room temperature. • 2. Cathepsin B: • 0.25 nM cathepsin B—isolated from human liver (Calbiochem #219362), 100 μM Z-Phe-Arg-AMC (Bachem #I-1160) as substrate 50 mM MES, 2 mM EDTA, 0.05% Brij 35, 2.5 mM L-cysteine, pH 6.0, room temperature. • 3. Cathepsin K: • 3 nM cathepsin K—activated from recombinant human procathepsin K from E. coli (Calbiochem #342001), 10 μM Z-Gly-Pro-Arg-AMC (Biomol #P-142) as substrate in 50 mM MES, 2 mM EDTA, 0.05% Brij 35, 2.5 mM L-cysteine, pH 6.0, room temperature. • 4. Cathepsin L: • 1 nM cathepsin L—isolated from human liver (Calbiochem #219402), 2 μM Z-Phe-Arg-AMC (Bachem #1-1160) as substrate in 50 mM MES, 2 mM EDTA, 0.05% Brij 35, 2.5 mM L-cysteine, pH 6.0, room temperature. • 5. Cathepsin S: • 0.5 nM recombinant human cathepsin S from E. coli (Calbiochem #219343), 20 μM Z-Val-Val-Arg-AMC (Bachem #1-1540) as substrate in 50 mM MES, 2 mM EDTA, 0.05% Brij 35, 2.5 mM L-cysteine, pH 6.0, room temperature. • The results of the in vitro determination are indicated in Table 1. The following abbreviations are used in Table 1: • The “Calpain activity” column, ++ stands for a calpain Ki (Ki(calpain)) of ≦40 nM and + means: 40 nM<Ki(Calpain)≦100 nM. • The “Sel. cat. B” column indicates the Ki(cathepsin B)/Ki(calpain) ratio. In this connection, ++ means a Ki(cathepsin B)/Ki(calpain) ratio of ≧30 and + means 10≦Ki(cathepsin B)/Ki(calpain)<30. • The “Sel. cat. K” column indicates the Ki(cathepsin K)/Ki(calpain) ratio. In this connection, ++ means a Ki(cathepsin K)/Ki(calpain) ratio of ≧30 and + means 10≦Ki(cathepsin K)/Ki(calpain)<30. • The “Sel. cat. L” column indicates the Ki(cathepsin L)/Ki(calpain) ratio. In this connection, ++ means a Ki(cathepsin L)/Ki(calpain) ratio of ≧50 and + means 30≦Ki(cathepsin L)/Ki(calpain)<50. • The “Sel. cat. S” column indicates the Ki(cathepsin S)/Ki(calpain) ratio. In this connection, ++ means a Ki(cathepsin S)/Ki(calpain) ratio of ≧100 and + means 50≦Ki(cathepsin S)/Ki(calpain)<100.

cathepsin S = biological target: T2, cathepsin S (Homo sapiens, UniProt P25774); assay: Cathepsin S enzyme inhibition in vitro (kinetic fluorescence assay); settings: recombinant human cathepsin S vs calpain I
T2 construct: purchased Calbiochem 219343; host or cells: E. coli
Description: as §1, §2

cathepsin L = biological target: T3, cathepsin L (Homo sapiens, UniProt P07711); assay: Cathepsin L enzyme inhibition in vitro (kinetic fluorescence assay); settings: cathepsin L isolated from human liver vs calpain I
T3 construct: cathepsin L—isolated from human liver (Calbiochem #219402); purchased Calbiochem 219402; host or cells: human liver (tissue-derived)
Description: as §1, §2

cathepsin K = biological target: T4, cathepsin K (Homo sapiens, UniProt P43235); assay: Cathepsin K enzyme inhibition in vitro (kinetic fluorescence assay); settings: cathepsin K activated from recombinant human procathepsin K vs calpain I
T4 construct: purchased Calbiochem 342001; host or cells: E. coli
T4 sequence (P43235 115-329): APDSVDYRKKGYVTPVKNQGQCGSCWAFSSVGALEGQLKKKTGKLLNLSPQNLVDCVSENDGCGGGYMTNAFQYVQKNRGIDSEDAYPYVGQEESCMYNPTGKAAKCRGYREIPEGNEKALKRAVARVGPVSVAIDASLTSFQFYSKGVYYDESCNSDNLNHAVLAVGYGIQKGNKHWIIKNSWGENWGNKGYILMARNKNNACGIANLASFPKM
Description: as §1, §2

T3 sequence (P07711 114-333): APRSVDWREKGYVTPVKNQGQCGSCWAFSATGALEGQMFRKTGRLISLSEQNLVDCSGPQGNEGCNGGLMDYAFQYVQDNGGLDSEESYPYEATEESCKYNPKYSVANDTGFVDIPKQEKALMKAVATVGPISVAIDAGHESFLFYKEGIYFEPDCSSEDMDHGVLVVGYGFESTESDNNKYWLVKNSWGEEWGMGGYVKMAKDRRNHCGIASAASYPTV
T2 sequence (P25774 115-331): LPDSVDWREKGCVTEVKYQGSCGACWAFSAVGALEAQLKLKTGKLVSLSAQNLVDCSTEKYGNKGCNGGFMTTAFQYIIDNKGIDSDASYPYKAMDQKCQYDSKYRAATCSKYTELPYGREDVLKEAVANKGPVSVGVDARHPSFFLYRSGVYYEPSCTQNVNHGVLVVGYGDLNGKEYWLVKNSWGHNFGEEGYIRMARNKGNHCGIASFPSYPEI

Row | Compound | Sel cat. B: Ki(cathepsin B)/Ki(calpain) ratio (cathepsin B) | Sel cat. S: Ki(cathepsin S)/Ki(calpain) ratio (cathepsin S) | Sel cat. L: Ki(cathepsin L)/Ki(calpain) ratio (cathepsin L) | Sel cat. K: Ki(cathepsin K)/Ki(calpain) ratio (cathepsin K)
1 | CCCCC(NC(=O)c1cccnc1-n1ccc(-c2ccc(N3CCOCC3)cc2)n1)C(=O)C(N)=O (stereo not drawn) [Example 33, N-{1-[Amino(oxo)acetyl]pentyl}-2-[3-(4-morpholin-4-ylphenyl)-1H-pyrazol-1-yl]nicotinamide] | + (+ means 10≦Ki(cathepsin B)/Ki(calpain)<30) | + (+ means 50≦Ki(cathepsin S)/Ki(calpain)<100) | – | –
2 | CC(C)CC(NC(=O)c1cc(Cl)cnc1-n1ccc(-c2ccccc2)n1)C(=O)C(N)=O (stereo not drawn) [Example 32, N-{1-[Amino(oxo)acetyl]-3-methylbutyl}-5-chloro-2-(3-phenyl-1H-pyrazol-1-yl)nicotinamide] | + (+ means 10≦Ki(cathepsin B)/Ki(calpain)<30) | – | – | –
3 | NC(=O)C(=O)C(Cc1cccs1)NC(=O)c1cccnc1-n1ccc(-c2ccccc2)n1 (stereo not drawn) [Example 40, N-[3-Amino-2,3-dioxo-1-(2-thienylmethyl)propyl]-2-(3-phenyl-1H-pyrazol-1-yl)pyridine-3-carboxamide] | + (+ means 10≦Ki(cathepsin B)/Ki(calpain)<30) | ++ (++ means a Ki(cathepsin S)/Ki(calpain) ratio of ≧100) | ++ (++ means a Ki(cathepsin L)/Ki(calpain) ratio of ≧50) | –
4 | CCCCC(NC(=O)c1cc(Cl)cnc1-n1ccc(-c2ccccc2)n1)C(=O)C(N)=O (stereo not drawn) [Example 28, N-{1-[Amino(oxo)acetyl]pentyl}-5-chloro-2-(3-phenyl-1H-pyrazol-1-yl)nicotinamide] | + (+ means 10≦Ki(cathepsin B)/Ki(calpain)<30) | – | – | –
5 | Cc1cc(-c2ccccc2)nn1-c1ncccc1C(=O)NC(Cc1ccccc1)C(=O)C(N)=O (stereo not drawn) [Example 61, N-(3-Amino-1-benzyl-2,3-dioxopropyl)-2-(5-methyl-3-phenyl-1H-pyrazol-1-yl)nicotinamide] | + (+ means 10≦Ki(cathepsin B)/Ki(calpain)<30) | ++ (++ means a Ki(cathepsin S)/Ki(calpain) ratio of ≧100) | – | –
6 | N#Cc1cnc(-n2ccc(-c3ccccc3F)n2)c(C(=O)NC(Cc2ccccc2)C(=O)C(N)=O)c1 (stereo not drawn) [Example 188, N-[3-Amino-2,3-dioxo-1-(phenylmethyl)propyl]-5-cyano-2-[3-(2-fluorophenyl)-1H-pyrazol-1-yl]pyridine-3-carboxamide] | – | – | ++ (++ means a Ki(cathepsin L)/Ki(calpain) ratio of ≧50) | ++ (++ means a Ki(cathepsin K)/Ki(calpain) ratio of ≧30)
7 | CN1CCN(c2ccc(-c3ccn(-c4ncccc4C(=O)NC(Cc4ccccc4)C(=O)C(N)=O)n3)cc2)CC1 (stereo not drawn) [Example 68, N-(3-Amino-1-benzyl-2,3-dioxopropyl)-2-{3-[4-(4-methylpiperazin-1-yl)phenyl]-1H-pyrazol-1-yl}nicotinamide] | – | ++ (++ means a Ki(cathepsin S)/Ki(calpain) ratio of ≧100) | – | + (+ means 10≦Ki(cathepsin K)/Ki(calpain)<30)
8 | NC(=O)C(=O)C(Cc1ccccc1)NC(=O)c1cccnc1-n1ccc(-c2cccc3cnccc23)n1 (stereo not drawn) [Example 156, N-[3-Amino-2,3-dioxo-1-(phenylmethyl)propyl]-2-(3-isoquinolin-5-yl-1H-pyrazol-1-yl)pyridine-3-carboxamide] | + (+ means 10≦Ki(cathepsin B)/Ki(calpain)<30) | ++ (++ means a Ki(cathepsin S)/Ki(calpain) ratio of ≧100) | + (+ means 30≦Ki(cathepsin L)/Ki(calpain)<50) | –
9 | CC(C)c1ccc2c(c1)-c1nn(-c3ncccc3C(=O)NC(Cc3ccccc3)C(=O)C(N)=O)cc1CO2 (stereo not drawn) [Example 144, N-[3-Amino-2,3-dioxo-1-(phenylmethyl)propyl]-2-[8-(1-methylethyl)chromeno[4,3-c]pyrazol-2(4H)-yl]pyridine-3-carboxamide] | + (+ means 10≦Ki(cathepsin B)/Ki(calpain)<30) | ++ (++ means a Ki(cathepsin S)/Ki(calpain) ratio of ≧100) | ++ (++ means a Ki(cathepsin L)/Ki(calpain) ratio of ≧50) | –
10 | Cc1cn(-c2ncccc2C(=O)NC(Cc2ccccc2)C(=O)C(N)=O)nc1-c1ccccc1 (stereo not drawn) [Example 84, N-(3-Amino-1-benzyl-2,3-dioxopropyl)-2-(4-methyl-3-phenyl-1H-pyrazol-1-yl)nicotinamide] | + (+ means 10≦Ki(cathepsin B)/Ki(calpain)<30) | ++ (++ means a Ki(cathepsin S)/Ki(calpain) ratio of ≧100) | ++ (++ means a Ki(cathepsin L)/Ki(calpain) ratio of ≧50) | –
11 | NC(=O)C(=O)C(Cc1ccc(Br)cc1)NC(=O)c1cccnc1-n1ccc(-c2ccccc2)n1 (stereo not drawn) [Example 122, N-{3-Amino-1-[(4-bromophenyl)methyl]-2,3-dioxopropyl}-2-(3-phenyl-1H-pyrazol-1-yl)pyridine-3-carboxamide] | ++ (++ means a Ki(cathepsin B)/Ki(calpain) ratio of ≧30) | ++ (++ means a Ki(cathepsin S)/Ki(calpain) ratio of ≧100) | ++ (++ means a Ki(cathepsin L)/Ki(calpain) ratio of ≧50) | –
12 | NC(=O)C(=O)C(Cc1ccccc1)NC(=O)c1cccnc1-n1ccc(-c2ccc(N3CCCCC3)cc2)n1 (stereo not drawn) [Example 64, N-(3-Amino-1-benzyl-2,3-dioxopropyl)-2-[3-(4-piperidin-1-ylphenyl)-1H-pyrazol-1-yl]nicotinamide] | + (+ means 10≦Ki(cathepsin B)/Ki(calpain)<30) | ++ (++ means a Ki(cathepsin S)/Ki(calpain) ratio of ≧100) | – | –
13 | N-{3-Amino-1-[(4-fluorophenyl)methyl]-2,3-dioxopropyl}-2-[3-(2,3-dichlorophenyl)-1H-pyrazol-1-yl]pyridine-3-carboxamide [Example 161] | + (+ means 10≦Ki(cathepsin B)/Ki(calpain)<30) | ++ (++ means a Ki(cathepsin S)/Ki(calpain) ratio of ≧100) | + (+ means 30≦Ki(cathepsin L)/Ki(calpain)<50) | –
